Results published in publication PMC9873282, “Design, synthesis and evaluation of quinoline-O-carbamate derivatives as multifunctional agents for the treatment of Alzheimer’s disease” (Journal of Enzyme Inhibition and Medicinal Chemistry, 2023).
Values joined by “and” are separate entries in the source; they are usually repeats but may differ in a detail not shown here. Equal values may be shown once. Read-outs that look alike come from different tables or passages of the source.

Legend:
[1] = biological target: T1, eqBuChE (Equus caballus, UniProt P81908); assay: biochemical; design: species or system equine; settings: for inhibition at 25 µM: read-out: eqBuChE inhibition rate; for IC50: IC50 ± SD eqBuChE, BuChE from equine serum; for SI = IC50 (AChE)/IC50 (BuChE): eeAChE/eqBuChE
T1 construct: eqBuChE, from equine serum; purchased Sigma Aldrich; host or cells: equine serum (natural source)
Protocol: (§1) The inhibitory activities of the synthesised compounds against eeAChE (from electric eel) and eqBuChE (from equine serum) were tested by the modified Ellman’s method[26]^,[27]. […] The determination of AChE and BuChE inhibitory potency of the synthesised compounds were evaluated by Ellman assay, the detailed procedure referred to our previous work[26]^,[27].

[2] = biological target: T2, eeAChE (Electrophorus electricus, UniProt O42275); assay: biochemical; design: species or system electric eel
T2 construct: eeAChE, from the electric eel; purchased Sigma Aldrich; host or cells: electric eel (natural source)
Protocol: as §1

[3] = system: IL-1β; assay: IL-1β production in LPS-stimulated BV-2 cells (ELISA); type: cell-based; settings: 1 µg/mL LPS 24 h
Protocol: (§2) Firstly, the cytotoxicity of compounds 3a, 3c, 3e, 3f, 3k, 3m and 3n were tested using CCK8 assay.
(§3) BV-2 cells (2 × 10^5 cells/well) were seeded in a 24-well cell culture plates. The cells were divided into blank control group, model group (1 µg/mL LPS), LPS + 2 µM compound group, LPS + 1 µM compound group. Each drug group was pre-treated with corresponding concentration of drug solution for 8 h. After 8 h, the culture medium was aspirated out. Except for the blank control group, which was added with DMEM medium, the other groups were stimulated with 1 µg/mL LPS for 24 h. Then cell supernatant was aspirated and centrifuged at 3000 rpm for 3 min. The content of NO in cell culture supernatant was determined by Griess method, and the levels of cytokines IL-6 and IL-1β in cell culture supernatant were determined by IL-6 ELISA kit and IL-1β ELISA kit, respectively.

[4] = system: PC12 cells; assay: Cytotoxicity on PC12 cells; type: cell-based; settings: at concentration below 40 µM
Protocol: (§4) The neuroprotective effect of compounds 3a, 3c, 3e, 3f, 3k, 3m, and 3n on Aβ25–35-induced PC12 cells injury were evaluated using CCK-8 assay. […] Furthermore, as shown in Figure 12(B), when PC12 cells were exposed to 25 µM Aβ25-35, the cell viability sharply declined to 57.3% (p < 0.01) compared with untreated group.
(§5) The PC12 cells during the logarithmic growth phase were digested and centrifuged with pancreatic enzyme solution, the cells were resuspended by adding the prepared media solution, and piped evenly with a pipette to seed in a 96-well cell culture plate (cell concentration adjusted to 2.0 × 10^4 cell·mL^−1). Each well was added 100 µL complete medium was added to each well and incubated at 37 °C and 5% CO2 for 24 h.

[5] = system: IL-6; assay: IL-6 production in LPS-stimulated BV-2 cells (ELISA); type: cell-based; settings: 1 µM and 2 µM; 1 µg/mL LPS 24 h
Protocol: as §2, §3

[6] = system: BV-2 cells; assay: Cytotoxicity on BV-2 cells (CCK8 assay); type: cell-based; settings: compounds at 2 µM
Protocol: as §2
BV-2 cells were cultured in DMEM containing 10% foetal bovine serum, 100 U/mL penicillin, 100 U/mL streptomycin, and 1% nonessential amino acid at 37 °C with 5% CO2.
BV-2 cells in logarithmic growth stage were digested and centrifuged, and then resuspended in DMEM medium containing 1% penicillin-streptomycin and 10% foetal bovine serum. The cells was adjusted to 1.2 × 10^4 cells/well, and then seeded evenly in 96-well cell culture plates. The cells were incubated for 36 h at 37 °C with 5% CO2. After incubation, the cells were added to different concentrations (10 and 2 µM) of tested compounds, and incubated for 24 h at 37 °C with 5% CO2. Then, 10 µL CCK-8 solution was added to each well, and incubated for another 1 h at 37 °C with 5% CO2. The OD values were tested at […]. The cell viability (%) = {(ODdrug−ODblank)}/{(ODcontrol−ODblank)} × 100%.

[7] = system: NO; assay: NO release in LPS-stimulated BV-2 cells (Griess method); type: cell-based; settings: 1 µg/mL LPS 24 h
Protocol: as §2, §3

[8] = system: Aβ25-35-induced PC12 cells injury; assay: Neuroprotective effect on Aβ25-35-induced PC12 cells injury (CCK-8); type: cell-based; settings: 25 µM Aβ25-35; model cell viability 57.3%
Protocol: as §4
• Preparation of Aβ25-35 aggregation. Aβ25-35 was purchased from sigma. 1 mg Aβ25-35 was dissolved in 943 µL of sterilised deionised water to obtain 1 mM stock solution, aliquoted, –20 °C preservation. Removing the appropriate volume in a 48-well plate and incubated in a 37 °C incubator for two days to allow its ageing to accumulate and produce neurotoxicity. After aggregation was completed, the solution was diluted with PBS to get 25 µM solution of Aβ25-35 aggregation. • Neuroprotective effects of compounds on Aβ25-35-induced PC12 cells injury
as §5
After incubation for 24 h, PC12 cells were divided into blank group, control group, Aβ25-35 model group and tested compounds group (5, 10, 20 µM). Then the original medium was discarded, and 100 µL new complete medium were added to PC12 cells, and the tested compounds group was added to 100 µL complete medium containing different concentrations (5, 10, and 20 µM) of tested compounds, incubated for 2 h at 37 °C, 5% CO2 conditions. After incubation for 2 h, 10 µL Aβ25-35 solution was added to the tested compounds groups and model group (the final concentration of Aβ25-35 was 25 µM), and incubated for 24 h at 37 °C, 5% CO2 conditions, 10 µL CCK-8 was added to each well and further incubated for 1 h at 37 °C and 5% CO2. Finally, the OD value was measured at 450 nm using a microplate reader, and each concentration set three wells. The cell survival rate (%) was determined according to the following formula: cell viability (%) = {(ODdrug−ODblank)}/{(ODcontrol−ODblank)}.

[9] = biological target: T3, hBuChE (Homo sapiens, UniProt P06276); assay: hBuChE reversibility of inhibition (recovery after dilution); type: biochemical
T3 construct: hBuChE, human serum BuChE; purchased Sigma Aldrich; host or cells: human serum (natural source)

[10] = AChE from electric eel, read-out: IC50 ± SD eeAChE

T1 sequence (P81908 whole entry): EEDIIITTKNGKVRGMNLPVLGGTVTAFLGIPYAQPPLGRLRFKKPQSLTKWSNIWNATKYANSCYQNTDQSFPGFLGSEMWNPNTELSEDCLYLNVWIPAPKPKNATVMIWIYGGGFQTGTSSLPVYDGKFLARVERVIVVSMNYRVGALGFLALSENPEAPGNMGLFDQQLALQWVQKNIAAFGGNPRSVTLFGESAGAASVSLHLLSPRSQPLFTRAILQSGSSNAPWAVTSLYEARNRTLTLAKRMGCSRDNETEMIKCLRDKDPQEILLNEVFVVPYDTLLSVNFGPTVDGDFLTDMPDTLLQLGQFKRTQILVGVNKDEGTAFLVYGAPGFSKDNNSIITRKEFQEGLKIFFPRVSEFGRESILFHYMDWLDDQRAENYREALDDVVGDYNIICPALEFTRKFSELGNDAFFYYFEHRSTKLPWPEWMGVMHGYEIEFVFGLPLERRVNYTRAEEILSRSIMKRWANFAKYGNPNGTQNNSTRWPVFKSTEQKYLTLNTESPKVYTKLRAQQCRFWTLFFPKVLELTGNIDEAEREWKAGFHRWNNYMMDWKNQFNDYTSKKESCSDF
T3 sequence (P06276 29-602): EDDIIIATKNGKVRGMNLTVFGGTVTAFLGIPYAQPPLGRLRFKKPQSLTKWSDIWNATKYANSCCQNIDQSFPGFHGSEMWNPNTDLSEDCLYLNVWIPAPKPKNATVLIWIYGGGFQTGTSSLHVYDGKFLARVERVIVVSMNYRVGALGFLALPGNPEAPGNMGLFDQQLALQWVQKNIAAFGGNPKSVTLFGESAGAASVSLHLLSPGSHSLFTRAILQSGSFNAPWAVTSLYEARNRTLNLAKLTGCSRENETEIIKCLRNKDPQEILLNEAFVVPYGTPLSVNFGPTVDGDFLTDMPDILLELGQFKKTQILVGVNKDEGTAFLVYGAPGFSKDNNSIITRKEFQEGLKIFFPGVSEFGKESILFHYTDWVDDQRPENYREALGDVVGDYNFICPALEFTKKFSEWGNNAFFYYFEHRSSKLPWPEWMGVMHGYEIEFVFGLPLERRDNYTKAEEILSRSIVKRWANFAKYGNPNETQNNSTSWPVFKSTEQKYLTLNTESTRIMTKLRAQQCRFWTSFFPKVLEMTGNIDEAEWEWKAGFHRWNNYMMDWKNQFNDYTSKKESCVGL
T2 sequence (O42275 24-633): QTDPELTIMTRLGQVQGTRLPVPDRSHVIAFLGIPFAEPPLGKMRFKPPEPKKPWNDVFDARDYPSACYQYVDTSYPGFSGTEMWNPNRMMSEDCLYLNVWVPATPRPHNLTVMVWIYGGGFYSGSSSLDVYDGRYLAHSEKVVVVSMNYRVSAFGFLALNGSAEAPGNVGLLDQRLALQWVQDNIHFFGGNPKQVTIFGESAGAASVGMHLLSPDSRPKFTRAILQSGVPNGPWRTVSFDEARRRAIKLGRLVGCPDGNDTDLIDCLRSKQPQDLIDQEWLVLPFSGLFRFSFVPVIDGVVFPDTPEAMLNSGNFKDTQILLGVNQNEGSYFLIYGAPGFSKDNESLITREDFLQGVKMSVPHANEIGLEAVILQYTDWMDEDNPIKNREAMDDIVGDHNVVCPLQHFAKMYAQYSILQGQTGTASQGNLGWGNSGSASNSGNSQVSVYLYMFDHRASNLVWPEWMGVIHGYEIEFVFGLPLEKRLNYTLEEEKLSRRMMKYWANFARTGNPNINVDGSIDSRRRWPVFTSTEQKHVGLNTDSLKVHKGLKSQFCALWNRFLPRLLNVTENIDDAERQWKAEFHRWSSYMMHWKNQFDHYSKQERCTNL

| Compound | inhibition at 25 µM ([1]; at 25 μM of compounds) [%] | IC50 [2, 10] [µM] | levels of IL-1β compared with model group [3] | cytotoxicity on PC12 cells [4] | levels of IL-6 compared with model group [5] | cell viability of BV-2 cells [6] | IC50 [2] [µM] | release volume of NO [7] | neuroprotective effect on Aβ25-35-induced PC12 cells injury [8] | further results |
| --- | --- | --- | --- | --- | --- | --- | --- | --- | --- | --- |
| CC(C)N(C(=O)Oc1cccc2cccnc12)C(C)C [Compound 3q, Quinolin-8-yl diisopropylcarbamate] | 1.7 ± 0.01 | 14.8 ± 0.68 |  |  |  |  |  |  |  |  |
| O=C(Oc1cccc2cccnc12)N1CCOCC1 [Compound 3p, Quinolin-8-yl morpholine-4-carboxylate] | 10.8 ± 0.07 | 12.6 ± 0.76 |  |  |  |  |  |  |  |  |
| CCN(C)C(=O)Oc1ccnc2ccccc12 [Compound 3c, Quinolin-4-yl ethyl(methyl)carbamate] |  |  | did not obviously decrease | did not show any cytotoxicity | significantly decreased | did not show obvious change | 13.2 ± 0.51 | significantly decreased | did not show significant neuroprotective effects | IC50 [1]: 1920 nM and 1900 nM; SI = IC50 (AChE)/IC50 (BuChE) [1]: 6.9 |
| CCN(CC)C(=O)Oc1ccc2ncccc2c1 [Compound 3j, Quinolin-6-yl diethylcarbamate] | 30.7 ± 1.26 | 12.2 ± 0.19 |  |  |  |  |  |  |  |  |
| CN(C)C(=O)Oc1ccnc2ccccc12 [Compound 3a, Quinolin-4-yl dimethylcarbamate] |  |  | did not obviously decrease | did not show any cytotoxicity | significantly decreased | did not show obvious change | 10.8 ± 0.33 | significantly decreased | did not show significant neuroprotective effects | IC50 [1]: 2830 nM and 2800 nM; SI = IC50 (AChE)/IC50 (BuChE) [1]: 3.8 |
| CN(C)C(=O)Oc1ccc2ncccc2c1 [Compound 3i, Quinolin-6-yl dimethylcarbamate] |  |  |  |  |  |  | 14.1 ± 0.43 |  |  | inhibition at 25 µM [1]: 13.8 ± 0.61% |
| CCN(C)C(=O)Oc1ccc2ncccc2c1 [Compound 3k, Quinolin-6-yl ethyl(methyl)carbamate] |  |  | significantly decreased | did not show any cytotoxicity | significantly decreased | did not show obvious change | 10.3 ± 0.58 | significantly decreased | significant neuroprotective effects at 10 µM | inhibition at 25 µM [1]: 5.8 ± 0.03% |
| CCN(C)C(=O)Oc1cccc([C@H](C)N(C)C)c1 [Rivastigmine, reference compound] |  |  |  |  |  |  |  |  |  | hBuChE activity (% control) ([9]; 0.1*IC50, diluted): 46.9 % control; hBuChE activity restored ([9]; 0.1 × IC50, 120 min): 62.3%; hBuChE activity restored ([9]; 0.1 × IC50, 240 min): 121.8%; hBuChE activity (% control) ([9]; 1*IC50, diluted): 52.3 % control; hBuChE activity (% control) ([9]; 1*IC50, undiluted): 51.4 % control |
| O=C(Oc1ccc2ncccc2c1)N1CCOCC1 [Compound 3l, Quinolin-6-yl morpholine-4-carboxylate] | 13.8 ± 0.61 | 17.6 ± 0.61 |  |  |  |  |  |  |  |  |
